Data from PubChem BioAssay (NCI).
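Assay format: 96-well plates, 48-hour exposure. TGI is the concentration that stops growth completely.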

Key:
Test in all cases: NCI anticancer screen, dose series, 48 h
HT29 colon = system: HT29 colon
MCF7 breast = system: MCF7 breast
SK-MEL-2 melanoma = system: SK-MEL-2 melanoma
KM12 colon = system: KM12 colon
EKVX NSCLC = system: EKVX NSCLC
OVCAR-4 ovarian = system: OVCAR-4 ovarian
SNB-19 CNS = system: SNB-19 CNS
MOLT-4 leukemia = system: MOLT-4 leukemia
HOP-92 NSCLC = system: HOP-92 NSCLC
UO-31 renal = system: UO-31 renal

Row | SMILES | TGI (HT29 colon) | TGI (MCF7 breast) | TGI (SK-MEL-2 melanoma) | TGI (KM12 colon) | TGI (EKVX NSCLC) | TGI (OVCAR-4 ovarian) | TGI (SNB-19 CNS) | TGI (MOLT-4 leukemia) | TGI (HOP-92 NSCLC) | TGI (UO-31 renal)
1 | CCOC(=O)CCCn1nnc(C(=O)OCC)c1C(=O)OCC | > 100 µM | > 100 µM | > 100 µM | > 100 µM | > 100 µM | > 100 µM | > 100 µM | > 100 µM | > 100 µM | > 100 µM
2 | CCC(C)[C@@H](NCc1ccccc1)[C@H](OCc1ccccc1)[C@@H]1COC(C)(C)O1 (stereo not given in full) | 23.7 µM | 44.4 µM | 35 µM | 44.3 µM | 42.7 µM | > 100 µM | 57.3 µM | 62.3 µM | 31.4 µM | 41.3 µM
3 | COc1cc(/C=C2/SC(c3ccccc3)N(c3ccc(NC(C)=O)cc3)C2=O)cc(OC)c1OC (stereo not given) | > 100 µM | > 100 µM | > 100 µM | > 100 µM | > 100 µM | > 100 µM | > 100 µM | > 100 µM | > 100 µM | > 100 µM
4 | COc1c2cc([N+](=O)[O-])cc1CNC(=O)CN1CCOCCOCCN(CCOCCOCC1)CC(=O)NC2 | > 100 µM | > 100 µM | > 100 µM | > 100 µM | > 100 µM | > 100 µM | > 100 µM | > 100 µM | > 100 µM | > 100 µM
5 | c1ccc(C2=NC3(CCCCC3)N(c3nc4ccccc4s3)N2)nc1 | 58 µM | > 100 µM | 42.6 µM | 75.9 µM | > 100 µM | > 100 µM | > 100 µM | > 100 µM | > 100 µM | > 100 µM
6 | CN(C)CCNc1ccc(C(=O)NCCCN(C)CCCNC(=O)c2ccc(NCCN(C)C)c3c(=O)c4ccccc4[nH]c23)c2[nH]c3ccccc3c(=O)c12 | 0.903 µM | 0.489 µM | 0.414 µM | 0.906 µM | 3.8 µM | 0.211 µM | 1.92 µM | 2.78 µM | 0.616 µM | 15.8 µM
7 | COC(=O)c1c2c(cc3c1CC1(Cc4ccccc4C1=O)C3)CCC2 (stereo not given) | 96.9 µM | > 100 µM | > 100 µM | 61.5 µM | > 100 µM | > 100 µM | > 100 µM | 47.4 µM | > 100 µM | > 100 µM
8 | O=C1C2CCCCC2C(=O)N1n1c(Cc2ccc(Cl)cc2)n[nH]c1=O (stereo not given) | > 100 µM | > 100 µM | > 100 µM | > 100 µM | > 100 µM | > 100 µM | > 100 µM | > 100 µM | > 100 µM | > 100 µM
9 | CCOC(=O)c1cnc(-n2[nH]c(C)c(CCO)c2=O)[nH]c1=O | > 100 µM | > 100 µM | > 100 µM | > 100 µM | > 100 µM | > 100 µM | > 100 µM | > 100 µM | > 100 µM | > 100 µM
10 | COC(=O)c1cn(CCCC(=O)O)nn1 | > 100 µM | > 100 µM | > 100 µM | > 100 µM | > 100 µM | > 100 µM | > 100 µM | > 100 µM | > 100 µM | > 100 µM
11 | O=C1CSC2(CC(/C=C/c3ccccc3)=NN2c2cccc(S(=O)(=O)O)c2)N1c1nc2ccccc2s1 (stereo not given) | > 100 µM | 45 µM | 49.5 µM | 38.3 µM | > 100 µM | 54.1 µM | 51.7 µM | 91.5 µM | 77.3 µM | 35.7 µM
12 | Cc1c2cc[nH]c(C(F)(F)F)c2cc2c1nc1ccccc12 | > 125 µM | > 125 µM | > 125 µM | > 125 µM | > 125 µM | > 125 µM | > 125 µM | > 78.9 µM | > 125 µM | > 125 µM
13 | Cc1ccc(C)n1-c1ccccc1C1SCCCS1 | > 100 µM | > 100 µM | > 100 µM | > 100 µM | > 100 µM | > 100 µM | > 100 µM | > 100 µM | > 100 µM | > 100 µM
14 | C1CC2=C(C1)[Se]C(=C1Sc3nsnc3S1)[Se]2 | > 100 µM | > 100 µM | > 100 µM | > 100 µM | > 100 µM | > 100 µM | > 100 µM | > 100 µM | > 100 µM | > 100 µM
15 | CN1C/C(=C\c2cccs2)C2=NC(=S)NC(c3cccs3)C2C1 (stereo not given) | > 100 µM | > 100 µM | > 100 µM | > 100 µM | > 100 µM | > 100 µM | > 100 µM | 92 µM | > 100 µM | > 100 µM
